Laboratory results from patent US20260317324A1, “BIFUNCTIONAL COMPOUNDS FOR DEGRADING BRAF VIA UBIQUITIN PROTEOSOME PATHWAY” (Nurix Therapeutics, Inc., priority 2023, published 2026).

Experiments:
Assay type in all cases: cell-based
BRAF D594G = target: T1, BRAF D594G (Homo sapiens, UniProt P15056, D594G); test: BRAF HiBiT degradation assay, C-terminal HiBiT-tagged BRAF D594G overexpressed in HCT-116 BRAF−/− cells (clone 63), Nano-Glo HiBiT Lytic assay
T1 construct: Horizon Discovery (HCT-116 BRAF−/− cells); host or cells: HCT-116 BRAF−/− cells, clone 63, lentiviral transduction
T1 sequence (P15056 whole entry D594G): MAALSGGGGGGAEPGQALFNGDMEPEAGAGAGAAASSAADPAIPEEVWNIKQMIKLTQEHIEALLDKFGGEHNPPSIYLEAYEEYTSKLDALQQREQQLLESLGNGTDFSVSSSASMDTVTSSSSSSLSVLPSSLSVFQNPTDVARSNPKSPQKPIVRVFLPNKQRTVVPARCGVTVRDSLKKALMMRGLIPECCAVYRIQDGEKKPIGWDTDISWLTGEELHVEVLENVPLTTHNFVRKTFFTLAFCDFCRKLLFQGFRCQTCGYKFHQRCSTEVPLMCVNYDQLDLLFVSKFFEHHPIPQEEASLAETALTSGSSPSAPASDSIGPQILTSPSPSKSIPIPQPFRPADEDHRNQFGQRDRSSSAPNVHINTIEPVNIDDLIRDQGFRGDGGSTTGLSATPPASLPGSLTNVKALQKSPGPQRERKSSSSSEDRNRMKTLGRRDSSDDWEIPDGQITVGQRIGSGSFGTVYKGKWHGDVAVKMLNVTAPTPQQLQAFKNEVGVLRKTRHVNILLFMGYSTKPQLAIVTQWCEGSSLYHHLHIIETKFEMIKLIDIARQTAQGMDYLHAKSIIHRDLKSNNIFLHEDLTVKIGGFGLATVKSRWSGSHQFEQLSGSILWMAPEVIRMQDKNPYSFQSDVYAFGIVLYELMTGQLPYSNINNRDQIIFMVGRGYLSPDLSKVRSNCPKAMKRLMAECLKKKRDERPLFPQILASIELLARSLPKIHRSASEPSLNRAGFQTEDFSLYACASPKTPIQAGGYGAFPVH
How it was run: (§1)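 Luminescence from the lytic HiBiT reagent, read after 10 min at room temperature, measured tagged BRAF remaining in lentivirally transduced HCT-116 BRAF−/− cells. Compounds were tested from 1 μM to 0.01 nM in half-log steps at 0.2% DMSO. DC50 values were fitted at 50% remaining.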

BRAF V600E = target: T2, BRAF V600E (Homo sapiens, UniProt P15056, V600E); test: BRAF HiBiT degradation assay, C-terminal HiBiT-tagged BRAF V600E A375 cells (clone 1F10), Nano-Glo HiBiT Lytic assay; settings: for Dmax: A-375
T2 construct: endogenous C-terminal HiBiT fusion tag on BRAF V600E allele; endogenous in cells; host or cells: A375 clone 1F10 (CRISPR-Cas9 knock-in of the HiBiT tag; parental A375 from ATCC)
T2 sequence (P15056 whole entry V600E, the tested form may be a part): as the sequence (P15056 whole entry D594G) above, with G594D, V600E counted along it
How it was run: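 Endogenous BRAF V600E-HiBiT A375 (1F10), 10,000 cells/well, 24 h preculture; cpd 11-pt, 1 μM–0.01 nM half-log, n=2, 0.2% DMSO; HiBiT lytic detection 10 min RT; DC50 = fitted conc at Y=50; Obs. Dmax vs DMSO.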

BRAF G466V = target: T3, BRAF G466V (Homo sapiens, UniProt P15056, G466V); test: BRAF HiBiT degradation assay, C-terminal HiBiT-tagged BRAF G466V overexpressed in HCT-116 BRAF−/− cells (clone 8), Nano-Glo HiBiT Lytic assay
T3 construct: Horizon Discovery (HCT-116 BRAF−/− cells); host or cells: HCT-116 BRAF−/− cells, clone 8, lentiviral transduction
T3 sequence (P15056 whole entry G466V): as the sequence (P15056 whole entry D594G) above, with G466V, G594D counted along it
How it was run: as §1

BRAF G469A = target: T4, BRAF G469A (Homo sapiens, UniProt P15056, G469A); test: BRAF HiBiT degradation assay, C-terminal HiBiT-tagged BRAF G469A overexpressed in HCT-116 BRAF−/− cells (clone 34), Nano-Glo HiBiT Lytic assay
T4 construct: Horizon Discovery (HCT-116 BRAF−/− cells); host or cells: HCT-116 BRAF−/− cells, clone 34, lentiviral transduction
T4 sequence (P15056 whole entry G469A): as the sequence (P15056 whole entry D594G) above, with G469A, G594D counted along it
How it was run: as §1

[1] = BRAF D594G (Class 3), HCT-116 BRAF−/− cells, DC50 at 50% degradation
[2] = BRAF D594G (Class 3), HCT-116 BRAF−/− cells, observed Dmax relative to DMSO control
[3] = A375 (BRAF V600E, Class 1), DC50 at 50% degradation
[4] = A375 (BRAF V600E, Class 1), observed Dmax, % protein degraded relative to DMSO control
[5] = BRAF G466V (Class 3), HCT-116 BRAF−/− cells, DC50 at 50% degradation
[6] = BRAF G466V (Class 3), HCT-116 BRAF−/− cells, observed Dmax relative to DMSO control
[7] = BRAF G469A (Class 2), HCT-116 BRAF−/− cells, DC50 at 50% degradation
[8] = BRAF G469A (Class 2), HCT-116 BRAF−/− cells, observed Dmax relative to DMSO control
[9] = BRAF D594G, DC50 at 50%: fitted conc. at Y=50
[10] = HCT-116, BRAF D594G, percentage protein degraded at maximal compound effect relative to DMSO
[11] = A375 (BRAF V600E), DC50 at 50%: fitted conc. at Y=50
[12] = A375 (BRAF V600E), percentage protein degraded at maximal compound effect relative to DMSO
[13] = BRAF G466V, DC50 at 50%: fitted conc. at Y=50
[14] = HCT-116, BRAF G466V, percentage protein degraded at maximal compound effect relative to DMSO
[15] = Class 2, BRAF G469A, DC50 at 50%: fitted conc. at Y=50
[16] = HCT-116, Class 2, BRAF G469A, percentage protein degraded at maximal compound effect relative to DMSO

| DC50 (BRAF D594G; [1]) | Dmax (BRAF D594G; [2]) | DC50 (BRAF V600E; [3]) | Dmax (BRAF V600E; [4]) | DC50 (BRAF G466V; [5]) | Dmax (BRAF G466V; [6]) | DC50 (BRAF G469A; [7]) | Dmax (BRAF G469A; [8]) | DC50 (BRAF D594G; [9]) | Dmax (BRAF D594G; [10]) | DC50 (BRAF V600E; [11]) | Dmax (BRAF V600E; [12]) | DC50 (BRAF G466V; [13]) | Dmax (BRAF G466V; [14]) | DC50 (BRAF G469A; [15]) | Dmax (BRAF G469A; [16]) | SMILES |
| --- | --- | --- | --- | --- | --- | --- | --- | --- | --- | --- | --- | --- | --- | --- | --- | --- |
| > 500 nM | 30 to 70% | 10 to 50 nM | > 70% | > 500 nM | 30 to 70% | > 500 nM | < 30% | – | – | – | – | – | – | – | – | CCCS(=O)(=O)Nc1cccc(-c2nc(C3CCC4(CC3)CN(C(=O)CC3CCN(C5CCN(c6ccc7c(c6)C(=O)N(C6CCC(=O)NC6=O)C7=O)CC5)CC3)C4)sc2-c2ccnc(N)n2)c1F (racemic) [Compound 247, Rac-N-{3-[5-(2-aminopyrimidin-4-yl)-2-{2-[2-(1′-{2-[(3R)-2,6-dioxopiperidin-3-yl]-1,3-dioxo-2,3-dihydro-1H-isoindol-5-yl}-[1,4′-bipiperidin]-4-yl)acetyl]-2-azaspiro[3.5]nonan-7-yl}-1,3-thiazol-4-yl]-2-fluorophenyl}propane-1-sulfonamide] |
| – | – | – | – | – | – | – | – | 10 to 50 nM | 30 to 70% | 10 to 50 nM | > 70% | 10 to 50 nM | 30 to 70% | > 500 nM | 30 to 70% | CCCS(=O)(=O)Nc1cccc(-c2cn(-c3ccc(N4CCN(CC5CCN(c6ccc(C7CCC(=O)NC7=O)c(F)c6)CC5)CC4)cc3)nc2-c2ccncc2)c1F (racemic) [Compound 19, Rac-N-{3-[1-(4-{4-[(1-{4-[(3R)-2,6-dioxopiperidin-3-yl]-3-fluorophenyl}piperidin-4-yl)methyl]piperazin-1-yl}phenyl)-3-(pyridin-4-yl)-1H-pyrazol-4-yl]-2-fluorophenyl}propane-1-sulfonamide] |
| – | – | – | – | – | – | – | – | 50 to 500 nM | 30 to 70% | < 10 nM | > 70% | > 500 nM | < 30% | > 500 nM | < 30% | CCCS(=O)(=O)Nc1cccc(-c2nc(C(C)(C)C)sc2-c2ccnc(Nc3cccc(OC4CCN(C(=O)C5CCN(c6cc(C7CCC(=O)NC7=O)ccn6)CC5)CC4)c3)n2)c1F (racemic) [Compound 100, Rac-N-[3-(2-tert-butyl-5-{2-[(3-{[1-(1-{4-[(3R)-2,6-dioxopiperidin-3-yl]pyridin-2-yl}piperidine-4-carbonyl)piperidin-4-yl]oxy}phenyl)amino]pyrimidin-4-yl}-1,3-thiazol-4-yl)-2-fluorophenyl]propane-1-sulfonamide] |
| > 500 nM | 30 to 70% | 50 to 500 nM | > 70% | > 500 nM | 30 to 70% | > 500 nM | < 30% | – | – | – | – | – | – | – | – | CCCS(=O)(=O)Nc1cccc(-c2nc(C3CCN(C(=O)CC4CCN(C5CCN(c6ccc7c(c6)C(=O)N(C6CCC(=O)NC6=O)C7=O)CC5)CC4)CC3)sc2-c2ccnc(N)n2)c1F (racemic) [Compound 250, Rac-N-{3-[5-(2-aminopyrimidin-4-yl)-2-{1-[2-(1′-{2-[(3R)-2,6-dioxopiperidin-3-yl]-1,3-dioxo-2,3-dihydro-1H-isoindol-5-yl}-[1,4′-bipiperidin]-4-yl)acetyl]piperidin-4-yl}-1,3-thiazol-4-yl]-2-fluorophenyl}propane-1-sulfonamide] |
| – | – | – | – | – | – | – | – | 10 to 50 nM | 30 to 70% | 10 to 50 nM | > 70% | 10 to 50 nM | 30 to 70% | > 500 nM | 30 to 70% | CCCS(=O)(=O)Nc1cccc(-c2cn(-c3ccc(N4CCN(CC5CCN(c6ccc(C7CCC(=O)NC7=O)cc6F)CC5)CC4)cc3)nc2-c2ccncc2)c1F (racemic) [Compound 18, Rac-N-{3-[1-(4-{4-[(1-{4-[(3R)-2,6-dioxopiperidin-3-yl]-2-fluorophenyl}piperidin-4-yl)methyl]piperazin-1-yl}phenyl)-3-(pyridin-4-yl)-1H-pyrazol-4-yl]-2-fluorophenyl}propane-1-sulfonamide] |
| < 10 nM | 30 to 70% | 10 to 50 nM | > 70% | 10 to 50 nM | 30 to 70% | 10 to 50 nM | 30 to 70% | – | – | – | – | – | – | – | – | CCCS(=O)(=O)Nc1cccc(-c2cn(-c3ccc(N4CCC(CN5CCN(c6ccc(C7CCC(=O)NC7=O)cc6)CC5)CC4)cc3)nc2-c2ccncc2)c1F (racemic) [Compound 381, Rac-(R)—N-(3-(1-(4-(4-((4-(4-(2,6-dioxopiperidin-3-yl)phenyl)piperazin-1-yl)methyl)piperidin-1-yl)phenyl)-3-(pyridin-4-yl)-1H-pyrazol-4-yl)-2-fluorophenyl)propane-1-sulfonamide] |
| < 10 nM | 30 to 70% | < 10 nM | > 70% | < 10 nM | > 70% | < 10 nM | > 70% | – | – | – | – | – | – | – | – | CCCS(=O)(=O)Nc1cc(Cl)cc(-c2cn(-c3ccc(N4CCN(CC5CCN(c6ccc(C7CCC(=O)NC7=O)cn6)CC5)[C@H](C)C4)cc3)nc2-c2ccncc2)c1F (mixture of isomers) [Compound 276, N-[5-chloro-3-(1-{4-[(3R)-4-[(1-{5-[(3RS)-2,6-dioxopiperidin-3-yl]pyridin-2-yl}piperidin-4-yl)methyl]-3-methylpiperazin-1-yl]phenyl}-3-(pyridin-4-yl)-1H-pyrazol-4-yl)-2-fluorophenyl]propane-1-sulfonamide] |
| – | – | – | – | – | – | – | – | > 500 nM | 30 to 70% | 50 to 500 nM | > 70% | 50 to 500 nM | 30 to 70% | > 500 nM | < 30% | CCN(C)S(=O)(=O)Nc1cccc(-c2nc(C(C)(C)C)sc2-c2ccnc(Nc3ccc(N4CCN(CC5CCN(c6ccc([C@H]7CCC(=O)NC7=O)cc6)CC5)CC4)cn3)n2)c1F [Compound 128, (3R)-3-{4-[4-({4-[6-({4-[2-tert-butyl-4-(3-{[ethyl(methyl)sulfamoyl]amino}-2-fluorophenyl)-1,3-thiazol-5-yl]pyrimidin-2-yl}amino)pyridin-3-yl]piperazin-1-yl}methyl)piperidin-1-yl]phenyl}piperidine-2,6-dione] |
| – | – | – | – | – | – | – | – | > 500 nM | 30 to 70% | < 10 nM | > 70% | > 500 nM | 30 to 70% | > 500 nM | 30 to 70% | CCCS(=O)(=O)Nc1cccc(-c2nc(C(C)(C)C)sc2-c2ccnc(Nc3ccc(N4CCN(C(=O)C5CCN(c6ccc(C7CCC(=O)NC7=O)cc6)CC5)CC4)c(F)c3)n2)c1F (racemic) [Compound 65, Rac-N-(3-{2-tert-butyl-5-[2-({4-[4-(1-{4-[(3R)-2,6-dioxopiperidin-3-yl]phenyl}piperidine-4-carbonyl)piperazin-1-yl]-3-fluorophenyl}amino)pyrimidin-4-yl]-1,3-thiazol-4-yl}-2-fluorophenyl)propane-1-sulfonamide] |
| – | – | – | – | – | – | – | – | > 500 nM | 30 to 70% | 10 to 50 nM | > 70% | 10 to 50 nM | 30 to 70% | > 500 nM | < 30% | CCCS(=O)(=O)Nc1cccc(-c2cn(-c3ccc(C4CCN(CC5CCN(c6ccc(C7CCC(=O)NC7=O)cc6)CC5)CC4)cc3)nc2-c2ccncc2)c1F (racemic) [Compound 25, Rac-N-{3-[1-(4-{1-[(1-{4-[(3R)-2,6-dioxopiperidin-3-yl]phenyl}piperidin-4-yl)methyl]piperidin-4-yl}phenyl)-3-(pyridin-4-yl)-1H-pyrazol-4-yl]-2-fluorophenyl}propane-1-sulfonamide] |
| – | – | – | – | – | – | – | – | < 10 nM | 30 to 70% | 10 to 50 nM | > 70% | < 10 nM | > 70% | 10 to 50 nM | 30 to 70% | CCN(C)S(=O)(=O)Nc1cccc(-c2nc(C(C)(C)C)sc2-c2ccnc(Nc3ccc(N4CCN(CC5CCN(c6ccc([C@H]7CCC(=O)NC7=O)cn6)CC5)CC4)cn3)n2)c1F [Compound 29, (3R)-3-{6-[4-({4-[6-({4-[2-tert-butyl-4-(3-{[ethyl(methyl)sulfamoyl]amino}-2-fluorophenyl)-1,3-thiazol-5-yl]pyrimidin-2-yl}amino)pyridin-3-yl]piperazin-1-yl}methyl)piperidin-1-yl]pyridin-3-yl}piperidine-2,6-dione] |
